Measured values from patent US20230029496A1, “AMINO ACID ALTERNATIVE CURING SYSTEM” (THE TEXAS A&M UNIVERSITY SYSTEM, priority 2019, published 2023).
Several values for one entry are separate records, joined by “and”; a condition that tells them apart may be missing. Equal entries are not always repeated.

Tested on: eNOS system
Assay: Whole muscle injection or immersion of pork loin/tenderloin with L-arginine test brine without phosphate (Example 9): pH and cured color
Procedure: Two (N=2) pork loins were procured from the same batch previously described (Mar. 18, 2019 pack date). […] Initial muscle pH was prior to and after injection/immersion and the brine pH was measured as well (Table 11). […] No sodium tri-polyphosphate was added to the brine, only water, salt, arginine, and sodium erythorbate in the same concentration/percentage used for prior benchtop laboratory tests. […] Phosphate was eliminated from the test brine to decrease pH to increase the likelihood of the L-arginine activating the eNOS system found within the meat.
Four (N=4) tenderloins fabricated from four pork loins (Mar. 18, 2019 pack date) were subjected to immersion curing by placing them into the remaining (leftover) test brine (no injection) for approximately 18 hr. were immersed in the remaining brine to simulate previous test tube trials.
After thermal processing, each sample was sliced to determine if any nitrosylation or cure color formation occurred. […] Even though phosphate was not included in the formulation the brine pH was still high. […] It appears that the concentration of L-arginine and the high brine pH may not be at the right amount/level to achieve the desired cured meat reaction. Based on these product failures, it was decided to go back to use the original protocol used in laboratory testing—but use a waterproof sausage casings to create a “pilot plant tube” to make sure the results seen in the laboratory could be replicated in a pilot plant setting.

N=C(N)NCCC[C@H](N)C(=O)O [L-arginine]
nitrosylation or cure color formation after thermal processing (injected loin sections and immersion cured tenderloins, cooked to 145° F.): no color change | End pH (loin, 10% injection of test brine (Table 10)): 5.56 | End pH (loin, 15% injection of test brine (Table 10)): 5.60 | End pH (loin, 20% injection of test brine (Table 10)): 5.62 | End pH (loin, 25% injection of test brine (Table 10)): 6.51 | End pH (tenderloin, immersion in test brine (Table 10) approximately 18 hr): 6.10 and 6.15 and 6.13 and 6.12 | Brine pH (test brine of Table 10: L-arginine 5574.90 ppm, no phosphate): 10.79
